Assays:
[1] = target: wild-type human cardiac sodium channel, hNav1.5 (late INa) (Homo sapiens, UniProt Q14524); assay: Late INa screening assay (QPatch whole cell patch clamp); format: cell-based; conditions: percent block of late INa, compound at 1 μM, 10 μM Tefluthrin, HEK293 hNav1.5; read-out: Late INa 1 μM
Outline: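 Compounds tested at 1 μM final in extracellular solution against tefluthrin (10 μM)-enhanced late current. Automated patch clamp (23-25° C) on HEK293 expressing alpha subunit alone: −120 mV holding, 250 ms depolarization to −20 mV every 10 s. Read-out is percent inhibition of mean current over 225–250 ms.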

[2] = Microsomal stability assay, rat; format: in vitro ADME; conditions: metabolic stability, rat liver microsomes 0.5 mg/mL, substrate 3 uM
Experimental: (§1) The micorsomal stability assay is generally performed as follows. Format: 15 compounds (and 1 control verapamil) in 3 different species in duplicate sets Substrate: 3 uM Protein concentration: 0.5 mg/mL (for dog, rat, and human liver microsomes) Cofactor: 1×NADPH-Regenerating system Time-points: 2, 12, 25, 45, and 65 minutes [table] Sample preparation: 25 uL at each timepoint is added to plate with 225 uL quenching solution (50% MeOH, 25% ACN, 25% H2O, and 50 nM […]). After plates are vortexed, centrifuge for 30 minutes. Microsomal solutions: take 400 uL of 20 mg/mL microsomes and add to 13,680 uL 100 mM KPO4 buffer. Using an 8-channel, add 650 uL of this solution to the designated two columns on a short plate. The order should be dog microsomes in columns 1 and 2, rat microsomes in columns 3 and 4, and human microsomes in columns 5 and 6. Keep on ice before use. Place this plate in incubator 1 on the TECAN countertop.

[3] = Microsomal stability assay, dog; format: in vitro ADME; conditions: metabolic stability, dog liver microsomes 0.5 mg/mL, substrate 3 uM
Experimental: as §1

[4] = Microsomal stability assay, human; format: in vitro ADME; conditions: metabolic stability, human liver microsomes 0.5 mg/mL, substrate 3 uM
Experimental: as §1

Chain of wild-type human cardiac sodium channel, hNav1.5 (late INa) (Q14524 whole entry): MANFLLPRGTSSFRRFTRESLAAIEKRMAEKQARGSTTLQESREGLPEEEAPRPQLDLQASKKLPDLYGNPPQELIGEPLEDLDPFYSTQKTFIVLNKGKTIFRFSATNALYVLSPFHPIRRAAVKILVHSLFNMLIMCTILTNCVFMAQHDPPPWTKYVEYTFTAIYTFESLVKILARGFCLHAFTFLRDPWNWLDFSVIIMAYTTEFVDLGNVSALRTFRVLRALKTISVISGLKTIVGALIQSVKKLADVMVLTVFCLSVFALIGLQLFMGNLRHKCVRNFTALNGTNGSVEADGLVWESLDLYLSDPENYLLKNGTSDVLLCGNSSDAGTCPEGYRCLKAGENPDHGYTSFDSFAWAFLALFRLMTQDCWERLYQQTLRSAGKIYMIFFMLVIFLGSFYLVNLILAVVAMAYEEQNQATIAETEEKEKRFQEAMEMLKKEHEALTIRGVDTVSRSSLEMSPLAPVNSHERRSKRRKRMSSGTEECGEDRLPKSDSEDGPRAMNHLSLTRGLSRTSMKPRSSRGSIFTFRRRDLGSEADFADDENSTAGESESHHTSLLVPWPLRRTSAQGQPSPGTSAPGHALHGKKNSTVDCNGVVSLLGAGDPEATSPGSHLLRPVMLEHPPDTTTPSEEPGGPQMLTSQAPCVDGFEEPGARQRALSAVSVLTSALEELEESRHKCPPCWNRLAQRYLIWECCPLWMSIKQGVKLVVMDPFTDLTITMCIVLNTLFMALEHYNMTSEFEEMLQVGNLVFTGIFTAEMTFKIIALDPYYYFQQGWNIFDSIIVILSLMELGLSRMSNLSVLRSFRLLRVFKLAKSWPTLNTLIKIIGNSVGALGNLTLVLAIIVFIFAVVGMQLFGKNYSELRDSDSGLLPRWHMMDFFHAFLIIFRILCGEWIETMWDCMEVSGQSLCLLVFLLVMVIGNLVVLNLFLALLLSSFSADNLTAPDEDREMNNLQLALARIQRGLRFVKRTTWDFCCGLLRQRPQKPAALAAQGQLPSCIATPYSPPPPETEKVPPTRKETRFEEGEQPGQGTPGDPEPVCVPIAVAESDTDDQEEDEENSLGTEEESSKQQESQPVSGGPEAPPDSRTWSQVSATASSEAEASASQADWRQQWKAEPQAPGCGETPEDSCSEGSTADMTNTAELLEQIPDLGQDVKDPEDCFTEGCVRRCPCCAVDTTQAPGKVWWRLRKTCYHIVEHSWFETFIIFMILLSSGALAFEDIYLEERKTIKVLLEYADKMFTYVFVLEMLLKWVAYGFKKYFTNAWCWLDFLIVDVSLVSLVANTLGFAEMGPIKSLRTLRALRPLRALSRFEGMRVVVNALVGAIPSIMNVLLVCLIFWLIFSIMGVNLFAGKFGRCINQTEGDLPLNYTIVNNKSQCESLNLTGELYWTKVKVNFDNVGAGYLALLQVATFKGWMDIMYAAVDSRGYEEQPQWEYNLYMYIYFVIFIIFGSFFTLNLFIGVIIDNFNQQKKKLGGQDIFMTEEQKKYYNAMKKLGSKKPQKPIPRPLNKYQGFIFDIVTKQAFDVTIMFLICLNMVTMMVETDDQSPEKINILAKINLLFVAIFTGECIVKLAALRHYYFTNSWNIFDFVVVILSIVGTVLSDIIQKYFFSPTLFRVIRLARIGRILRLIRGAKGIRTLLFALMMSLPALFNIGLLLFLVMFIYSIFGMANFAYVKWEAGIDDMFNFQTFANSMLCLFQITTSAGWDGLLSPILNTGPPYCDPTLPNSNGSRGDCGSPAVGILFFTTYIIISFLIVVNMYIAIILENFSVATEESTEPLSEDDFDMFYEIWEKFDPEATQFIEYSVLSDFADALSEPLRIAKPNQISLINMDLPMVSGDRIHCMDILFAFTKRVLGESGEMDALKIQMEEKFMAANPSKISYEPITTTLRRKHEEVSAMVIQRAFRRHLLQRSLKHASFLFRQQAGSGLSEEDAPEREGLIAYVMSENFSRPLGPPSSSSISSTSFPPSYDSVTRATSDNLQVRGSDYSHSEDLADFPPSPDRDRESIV

Compound | MS Rat THalf [2] [min] | MS Dog THalf [3] [min] | MS Human THalf [4] [min] | inhibition at 1 µM [1] [%]
O=c1c2cc(-c3ccc(OC(F)(F)F)cc3)ccc2cnn1Cc1cccnc1Br [III-14, 2-((2-bromopyridin-3-yl)methyl)-7-(4-(trifluoromethoxy)phenyl)phthalazin-1 (2H)-one] | 55 | 77 | 251 | 39
Cc1cccc(CCn2ncc3ccc(-c4ccc(OC(F)(F)F)cc4)cc3c2=O)n1 [III-18, 2-(2-(6-methylpyridin-2-yl)ethyl)-7-(4-(trifluoromethoxy)phenyl)phthalazin-1 (2H)-one] | 20 | 23 | 25 | 37
Cc1cc(C)nc(Cn2ncc3ccc(-c4ccc(OC(F)(F)F)cc4)cc3c2=O)n1 [III-22] | 86 | 191 | 252 | 35
Cn1ccnc1C(=O)N1CCc2ccc(-c3ccc(C(F)(F)F)cc3)cc2C1 [IX-80, (1-methyl-1H-imidazol-2-yl)(7-(4-(trifluoromethyl)phenyl)-3,4-dihydroisoquinolin-2(1H)-yl)methanone] | 7 | 197 | 170 | 40
O=C1c2cc(-c3ccc(OC(F)(F)F)cc3)ccc2CCN1Cc1ccccn1 [IX-2, 2-(pyridin-2-ylmethyl)-7-(4-(trifluoromethoxy)phenyl)-3,4-dihydroisoquinolin-1(2H)-one] | 106 | 88 | 65 | 40
Cc1cc(C)n(CCn2ncc3ccc(-c4ccc(OC(F)(F)F)cc4)cc3c2=O)n1 [III-24, 2-(2-(3,5-dimethyl-1H-pyrazol-1-yl)ethyl)-7-(4-(trifluoromethoxy)phenyl)phthalazin-1 (2H)-one] | 9 | 18 | 13 | 28
O=c1c2cc(-c3cnc(N4CCCCC4)nc3)ccc2nnn1CCOc1ncccn1 [Compound V-12, 6-(2-(piperidin-1-yl)pyrimidin-5-yl)-3-(2-(pyrimidin-2-yloxy)ethyl)benzo[d][1,2,3]triazin-4(3H)-one] | 11 | 5 | 9 | 26
O=C(NCc1ccco1)N1CCc2ccc(-c3ccc(C(F)(F)F)cc3)cc2C1 [IX-48, N-(furan-2-ylmethyl)-7-(4-(trifluoromethyl)phenyl)-3,4-dihydroisoquinoline-2(1H)-carboxamide] | 37 | 149 | 80 | 31
O=c1c2cc(-c3ccc(OC(F)(F)F)cc3)ccc2cnn1Cc1cccnc1C1CC1 [III-20] | 54 | 61 | 41 | 28
Cc1nc(Cn2ncc3ccc(-c4ccc(OC(F)(F)F)cc4)cc3c2=O)no1 [III-3, 2-((5-methyl-1,2,4-oxadiazol-3-yl)methyl)-7-(4-(trifluoromethoxy)phenyl)phthalazin-1(2H)-one] | 104 | 122 | > 395 | 42
Cc1noc(Cn2nnc3ccc(-c4ccc(Oc5ccc(Cl)cc5)cc4)cc3c2=O)n1 [II-16, 6-(4-(4-chlorophenoxyl)phenyl)-3-((3-methyl-1,2,4-oxadiazol-5-yl)methyl)benzo[d][1,2,3]triazin-4(3H)-one] | 102 | 31 | 74 | 76
CN(C(=O)N1CCc2ccc(-c3ccc(C(F)(F)F)cc3)cc2C1)c1ccccc1 [IX-50, N-methyl-N-phenyl-7-(4-(trifluoromethyl)phenyl)-3,4-dihydroisoquinoline-2(1H)-carboxamide] | 9 | 96 | 61 | 29
CC(c1nc(-c2ncccn2)no1)n1nnc2ccc(-c3ccc(OC(F)(F)F)cc3)cc2c1=O (stereo not drawn) [II-53, 3-(1-(3-(pyrimidin-2-yl)-1,2,4-oxadiazol-5-yl)ethyl)-6-(4-(trifluoromethoxy)phenyl)benzo[d][1,2,3]triazin-4(3H)-one] | > 395 | 646 | > 395 | 29

Continued, in another order:

MS Rat THalf [2] [min] | MS Dog THalf [3] [min] | MS Human THalf [4] [min] | Compound | inhibition at 1 µM [1] [%]
144 | 123 | 164 | Cc1nc(Cn2nnc3ccc(-c4ccc(OC(F)(F)F)cc4)cc3c2=O)no1 [II-6, 3-((5-methyl-1,2,4-oxadiazol-3-yl)methyl)-6-(4-(trifluoromethoxy)phenyl)benzo[d][1,2,3]triazin-4(3H)-one] | 43
22 | 28 | 34 | Cc1ccn(CCn2ncc3ccc(-c4ccc(OC(F)(F)F)cc4)cc3c2=O)n1 [III-17, 2-(2-(3-methyl-1H-pyrazol-1-yl)ethyl)-7-(4-(trifluoromethoxy)phenyl)phthalazin-1 (2H)-one] | 49
19 | 23 | 33 | O=c1c2cc(-c3ccc(OC(F)(F)F)cc3)ccc2nnn1CCc1ccccn1 [II-15, 3-(2-(pyridin-2-yl)ethyl)-6-(4-(trifluoromethoxy)phenyl)benzo[d][1,2,3]triazin-4(3H)-one] | 71
2 | 4 | 2 | CCc1nccn1CC1(Cn2nnc3ccc(-c4ccc(OC(F)(F)F)cc4)cc3c2=O)CC1 [II-57, 3-((1-((2-ethyl-1H-imidazol-1-yl)methyl)cyclopropyl)methyl)-6-(4-(trifluoromethoxy)phenyl)benzo[d][1,2,3]triazin-4(3H)-one] | 38
118 | 76 | 319 | O=c1c2cc(-c3ccc(OC(F)(F)F)cc3)ccc2nnn1CCn1ccc(C(F)(F)F)n1 [II-52, 6-(4-(trifluoromethoxy)phenyl)-3-(2-(3-(trifluoromethyl)-1H-pyrazol-1-yl)ethyl)benzo[d][1,2,3]triazin-4(3H)-one] | 32
94 | 78 | 75 | O=c1c2cc(-c3ccc(OC(F)(F)F)cc3)ccc2nnn1C1CCN(CC(F)(F)F)CC1 [II-71, 3-(1-(2,2,2-trifluoroethyl)piperidin-4-yl)-6-(4-(trifluoromethoxy)phenyl)benzo[d][1,2,3]triazin-4(3H)-one] | 25
16 | 34 | 31 | O=c1c2cc(-c3ccc(OC(F)(F)F)cc3)ccc2nnn1Cc1coc(C2CCC2)n1 [II-98, 3((2-cyclobutyloxazol-4-yl)methyl)-6-(4-(trifluoromethoxy)phenyl)benzo[d][1,2,3]triazin-4(3H)-one] | 41
51 | 98 | 107 | CC(C)(COc1ncccn1)Cn1nnc2ccc(-c3ccc(OC(F)(F)F)cc3)cc2c1=O [II-84, 3-(2,2-dimethyl-3-(pyrimidin-2-yloxy)propyl)-6-(4-(trifluoromethoxy)phenyl)benzo[d][1,2,3]triazin-4(3H)-one] | 34

Reference: patent publication US20150329558A1, “FUSED HETEROCYCLIC COMPOUNDS AS ION CHANNEL MODULATORS” (Gilead Sciences, Inc., priority 2011, published 2015)
